Measurements published in patent publication US10793625B2, “Compositions and methods for treating or preventing osteoarthritis” (THE JOHNS HOPKINS UNIVERSITY, priority 2012, dated 2020).
Read-outs that look alike come from different tables or passages of the source.

How the values were obtained:
9-month-old ACLT mice = test: ACLT or sham surgery in 9 month old mice treated with TβRI inhibitor; assay type: in vivo, mouse; details: for articular cartilage degeneration / subchondral bone structure / architecture: 1 mg/kg daily for 1 month
Experimental: (FIG. 12A) Safranin O staining of tibia articular cartilage and subchondral bone of mice sacrificed at 0, 14, 30, and 60 days post sham or ACLT surgery and treated with either vehicle or TβRI inhibitor (SB505124-1 mg/kg) daily beginning 3 days post-surgery for 1 month. For those mice analyzed at earlier time points, the mice were treated until sacrificed. (FIG. 12B) 3D μCT images of subchondral bone of knee joints. The sham operated mice maintained articular cartilage and subchondral bone structure throughout the duration of the experiment. […] (FIG. 12C) OARSI score based on the histology analysis. Quantitative analysis of structural parameters by μCT analysis: (FIG. 12D) thickness of subchondral bone plate (SBP) and (FIG. 12E) trabecular pattern factor (Tb. Pf). […] Ve-Sham: vehicle treated in sham operated; In-Sham: TβRI inhibitor treat in sham operated; Ve-ACLT: vehicle treated in ACLT operated; In-ACLT: TβRI inhibitor treated in ACLT operated mice.
Histochemistry, Immunohistochemistry and Histomorphometry. […] Immunostaining was performed using standard protocol. […] We calculated OARSI scores as previously described.
Micro-Computed Tomography (μCT). […] Th: trabecular thickness, Tb. Sp: trabecular separation, SMI, Conn. Dn: connectivity density, and Tb.Pf: trabecular pattern factor.

[1] = test system: Nestin-Cre™ER::Rosa26-LacZ^fl/fl mice; test: β-gal and osteocalcin co-staining in subchondral bone of Nestin-CreER::Rosa26-LacZfl/fl ACLT mice; assay type: in vivo, mouse
Source text: We purchased Nestin-Cre™ER and (ROSA)26Sortm1Sor/J mice from the Jackson Laboratory. Floxed type II TGF-β receptor (TβRII^fl/fl) mice were obtained from Dr. Moses' lab. Nestin-Cre™ER mice were crossed with TβRII^fl/fl mice. The offspring were intercrossed to generate the following offspring: nestin-Cre™ER::TβRII^fl/fl, in which Cre was fused with a mutated estrogen receptor that could be activated by Tamoxifen. We determined the genotype of transgenic mice by PCR analyses of genomic DNA isolated from mouse tails. Genotyping for the Cre transgene was performed by PCR with the primers Cre 5′ (5′-CAAATAGCCCTGGCAGAT-3′) and Cre 3′ (5′-[…]-3′). The loxP TβRII allele was identified with the primerslox1F (5′-[…]-3′) and lox1R (5′-[…]-3′). We generated Nestin-Cre™ER::Rosa26-LacZ^fl/fl mice by crossing nestin-Cre™ER mice with mice homozygous with a loxP-flanked DNA STOP sequence preventing expression of the downstream lacZ gene. The offspring were then intercrossed to generate the following genotype: Nestin-Cre™ER::Rosa26-LacZ^fl/fl. We performed sham or ACLT operations on two month-old, male WT, Nestin-Cre™ER::TβRII^fl/fl and Nestin-Cre™ER::Rosa26-lacZ^fl/fl male mice. […]
Histochemistry, Immunohistochemistry and Histomorphometry. […] We calculated OARSI scores as previously described.

active TGF-β1 = details: injection; cited from earlier work
[2] = test system: Dunkin Hartley guinea pig spontaneous osteoarthritis; test: Dunkin Hartley guinea pig spontaneous osteoarthritis, MRI of knee joints; assay type: in vivo; details: injected for 3 months
Source text: (FIG. 16A) MRI scanning of knee joints of the guinea pig with different dose of TβRI inhibitor or vehicle treatment for 3 months. Red arrows pointing the bone marrow lesions in the subchondral bone of distal femur (upper row) or tibiae plateau (lower row). (FIG. 16B) Quantitative analysis of the bone marrow lesion intensity.

MSCs = test: Western blot of Smad phosphorylation in cultured MSCs treated with recombinant hTGF-β1; assay type: cell-based, mouse
Experimental: Cell Culture. We obtained green fluorescent protein (GFP)-labeled mouse adult MSCs from the Texas A&M Health Science Center College of Medicine Institute (College Station). We maintained cells (Passage 3-5) Iscove's modified Dulbecco's medium (Invitrogen) supplemented with 10% fetal calf serum (Atlanta Biologicals), 10% horse serum (Thermo Scientific), and (% penicillin-streptomycin (Mediatech). We cultured MSCs in 6-well plates at a density of 1.8×10^5 cells per well, then starved them for 6 h followed by TGF-β1 (R&D Systems) and TβRI inhibitor (SB-505124) (Sigma-Aldrich) treatment as indicated.
ELISA and Western Blot, We determined the concentration of active TGF-β1 in the conditioned media by the ELISA Development kit (R&D Systems) according to the manufacturer's instructions. Western blot analyses were conducted on the protein of lysates from in vitro cultured MSCs. The cell lysates were centrifuged and the supernatants were separated by SDS-PAGE and blotted on polyvinylidene fluoride membrane (Bio-Rad Laboratories). Following incubation in specific antibodies, we detected proteins using an enhanced chemiluminescence kit (Amersham Biosciences). […]

[3] = 9 month old ACLT mice, listed as WI inhibitor, 1 mg/kg

## Cc1cccc(-c2[nH]c(C(C)(C)C)nc2-c2ccc3c(c2)OCO3)n1 [TβRI inhibitor]
ACLT mice; 1 mg kg^−1
  subchondral bone tissue volume (TV), μCT: normalization of subchondral bone TV
  thickness of subchondral bone plate (SBP), μCT: maintenance of the thickness of SBP
  trabecular pattern factor (Tb. Pf), μCT: decrease in Tb. Pf
ACLT mice; 0.1 and 0.5 mg/kg, 2 months after ACLT
  degeneration of articular cartilage: nor prevent the degeneration of articular cartilage
ACLT mice; 1 month post ACLT
  contrast signal in MRI perfusion analysis: the increase was prevented
ACLT mice; 2 weeks post-surgery
  expression of ALK5 in subchondral bone: the increase was inhibited
  pSmad2/3+ cells in subchondral bone: the increase was prevented
ACLT mice; 2 weeks post-surgery, relative to sham
  expression level of ALK1 in subchondral bone: remained unchanged
ACLT mice; 2 weeks post-surgery, relative to sham controls
  number of pSmad1+ cells in subchondral bone: remained relatively stable
ACLT mice; 2.5 and 5 mg/kg daily i.p. for 30 days, ACLT mice
  subchondral bone structure: could rescue the bone structure
ACLT mice; 14 and 30 days, immunostaining
  co-localization of osterix+ osteoprogenitors and TRAP+ osteoclasts: co-localization of osterix and TRAP was seen
ACLT mice; 30 days post-surgery, immunostaining
  increase of nestin+ MSCs in subchondral bone marrow: prevented
ACLT mice; ACLT mice
  CD31+ endothelial progenitors in subchondral bone: reduced
ACLT mice; all doses, 30 and 60 days post ACLT
  bone volume/tissue volume (BV/TV), μCT: did not change BV/TV
ACLT mice; high doses 1, 2.5 and 5 mg/kg
  subchondral bone tissue volume (TV), μCT: inhibited the increase in TV
  trabecular pattern factor (Tb. Pf), μCT: decreased Tb. Pf
ACLT mice; higher concentrations, beginning at 1 mg kg^−1
  subchondral bone structure: improved subchondral bone structure
ACLT mice; micro-MRI, vs ACLT-vehicle treated mice
  bone marrow lesion in tibial subchondral bone: obviously smaller in size
ACLT mice; one month post ACLT, vs vehicle
  increased number of osterix+ osteoprogenitor clusters in bone marrow: attenuated
ACLT mice; two months post-surgery, Catwalk system
  gait analysis: disparity of maximum contact time (Maxcontactat %) of the two hind limbs: rescued
ACLT mice; vs vehicle treated ACLT mice
  OARSI score of articular cartilage: protective effect
9-month-old ACLT mice; 9 month old ACLT mice, 1 mg/kg
  articular cartilage degeneration: attenuated the articular cartilage degeneration
  subchondral bone structure / architecture: improved subchondral bone architecture
9-month-old ACLT mice; [3]
  articular cartilage degeneration: attenuated
  subchondral bone structure / architecture: improved
9-month-old ACLT mice; 9 month old ACLT mice, 1 and 2 months post ACLT, relative to ACLT-Vehicle
  trabecular pattern factor (Tb. Pf), μCT: decreased the trabecular pattern factor
9-month-old ACLT mice; 9 month old ACLT mice, 1 month post-surgery, compared to sham-operated controls
  thickness of subchondral bone plate (SBP), μCT: remained normal
9-month-old ACLT mice; sham-operated 9 month old mice, 1 mg/kg
  effect on articular cartilage: did not have significant effect on articular cartilage
[1]
  distribution of β-gal+ MSC lineage cells in subchondral bone: primarily distributed on bone surface
Active TGF-β1
  uncoupled bone formation induced by high concentrations of active TGF-β1: rescue uncoupled bone formation
[2]
  subchondral bone marrow lesions in knee joints: significantly reduced

## TGF-β1: recombinant hTGF-β1 (R&D Systems) used to treat cultured MSCs
MSCs
  dose giving maximal increase of phosphorylated Smad1/5/8: 5 ng/mL
MSCs; low concentrations
  phosphorylation of Smad2/3 and Smad1/5/8: stimulated phosphorylation
